According to patent US8455479B2, “Heterocyclic compounds” (Panacea Biotec Limited, priority 2008, dated 2013):

Legend:
DPP-IV = DPP-IV (UniProt P27487); experiment: In-vitro DPP-IV assay (cleavage of pNA from Gly-Pro-pNA); format: biochemical, porcine kidney or human recombinant; settings: for IC50: DPP-IV; for % Inhibition: DPP-IV inhibition at 100 nM
Experimental: Protocol for In-Vitro DPP-IV Assay
DPP-IV activity was determined by the rate of cleavage of p-nitro aniline (pNA) from synthetic substrate Glycine-Proline-pNA. The assay was conducted by adding 1 μg of porcine kidney or human recombinant DPP-IV enzyme (Sigma Aldrich, USA) in 100 μL of the assay buffer (100 mM Tris, pH 7.4, 140 mM NaCl, 10 mM KCl, 1% BSA) to 96 well Cellstar flat bottom microtitre plates (Greiner Bio-one, Germany). The reaction was initiated by adding 80 μl of 500 μM substrate Gly-Pro-pNA. The incubation was carried out in the kinetic mode at 30° C. for 30 min. Absorbance was measured using Synergy HT Biotek Multiplate reader at 410 nm. Test compounds and solvent controls were added as 10 μL additions. A standard curve of free p-nitro, aniline (pNA) was generated using 0-2000 μM pNA in the assay buffer. In addition DPP-IV activity was also determined by using Fluorogenic substrate (Gly-Pro-AMC) using human recombinant DPP-IV enzyme (Sigma Aldrich USA).
Test compounds dissolved in DMSO at 9-10 different concentrations were tested in triplicates along with the solvent control and blank samples. % age inhibition was calculated at each concentration with respect to the solvent control (no test compound added). IC50 values were calculated from 3 experiments using the Graph Pad Prism or Sigma Stat software.

C57BL/6J mice = experiment: Oral glucose tolerance test (OGTT) in C57BL/6J mice; format: in vivo; settings: for ED50 (mg/kg p.o.): OGTT in C57BL/6J mice; for % Reduction in glucose excursion: OGTT in C57BL/6J mice at 3 mg/kg body weight, glucose 2 g/kg p.o., glucose AUC
Experimental: Oral Glucose Tolerance Test (OGTT) in C57BL/6J Mice
The oral glucose tolerance test (OGTT) measures the body's ability to use glucose that is the body's main source of energy. OGTT serves as a primary in-vivo screen to select efficacious test compounds for their antidiabetic activity. Compounds were formulated in 0.25% CMC with a drop of tween 80 (optional). C57BL/6J male mice (8-9 weeks) were fasted overnight and randomized into different groups (n=6) on body weigh basis. At T−15 min blood was collected from each group for glucose estimation. At T0 compounds or vehicle were administered with simultaneous administration of glucose (2 g/kg p.o.) to each group. RO water was administered to no glucose control group. Blood samples were collected from retro-orbital plexus at 15, 30, 60 and 120 min post dosing for glucose estimation. The AUC for glucose was calculated to get the reduction in glucose excursion.

Row | IC50 (DPP-IV) [nM] | SMILES | % Inhibition (DPP-IV) | ED50 (mg/kg p.o.) (C57BL/6J mice) | % Reduction in glucose excursion (C57BL/6J mice) [%]
1 | 1 to 100 | N[C@@H](CC(=O)N1CC(=O)Nc2ccccc2C1)Cc1cc(F)c(F)cc1F [Compound 2] | Y (Y: 50-100% DPP-IV inhibition at 100 nM) | 0.4 | 51
2 | 1 to 100 | N[C@@H](CC(=O)N1CC(=O)Nc2cc(F)ccc2C1)Cc1cc(F)c(F)cc1F [Compound 3] | Y (Y: 50-100% DPP-IV inhibition at 100 nM) | 0.7 | 37
3 | 1 to 100 | N[C@@H](CC(=O)N1CC(=O)N(CC(=O)NC2CC2)c2cc(F)ccc2C1)Cc1cc(F)c(F)cc1F [Compound 38] | Y (Y: 50-100% DPP-IV inhibition at 100 nM) |  | 
4 |  | CN(C(=O)CN1C(=O)CN(C(=O)C[C@H](N)Cc2cc(F)c(F)cc2F)Cc2ccccc21)C1CC1 [Compound 39] | Y (Y: 50-100% DPP-IV inhibition at 100 nM) |  | 

Row | SMILES | IC50 (DPP-IV) [nM] | % Inhibition (DPP-IV) | ED50 (mg/kg p.o.) (C57BL/6J mice) | % Reduction in glucose excursion (C57BL/6J mice) [%]
5 | N[C@@H](CC(=O)N1Cc2ccccc2-n2ccnc2C1)Cc1cc(F)c(F)cc1F [Compound 95] | 1 to 100 | Y (Y: 50-100% DPP-IV inhibition at 100 nM) |  | 
